# Measured values from US10959992B2, “Methods of treatment of asthma and COPD” (Bridge Pharma, Inc., priority 2019, dated 2021).
# Like-named read-outs stand apart in the source and are kept apart here.
# How the values were obtained:
# IL-4 = test: PHA-induced release of IL-4 from human buffy coats; format: cell-based; conditions: PHA 5 μg/ml, 16 hours, inhibition
# Procedure: (§1) The study was conducted in two phases. The first phase included optimization of the test methodology and included also dose-range finding studies, using buffy coats from 3 human donors, stimulated with phytohemagglutinin (PHA). The concentrations of the test article and the duration of exposure were optimized to obtain acceptable dose-response ratios. Following optimization of the test conditions, a final protocol was issued. In the Main Study, buffy coats from 5 healthy human male donors were stimulated with PHA, 5 μg/ml.
# (§2) The inhibitory effects of three concentrations of NK and one concentration of ketotifen were evaluated in the Main Study. The buffy coats were resuspended in assay media and were pre-incubated for 30 min with either vehicle/saline, ketotifen (10 μM) or norketotifen (1.0; 10 or 100 μM). Following these preincubations, the white blood cell suspensions were stimulated for 16 hours with PHA, 5 μg/ml. The cell system supernatants were then harvested and stored frozen.
# IL-6 = test: PHA-induced release of IL-6 from human buffy coats; format: cell-based; conditions: PHA 5 μg/ml, 16 hours, inhibition
# Procedure: as §1, §2
# IL-2 = test: PHA-induced release of IL-2 from human buffy coats; format: cell-based; conditions: PHA 5 μg/ml, 16 hours, inhibition
# Procedure: as §1, §2
# Moraxella catarrhalis = test: Antimicrobial activity (MIC), Moraxella catarrhalis; format: cell-based; conditions: Bacteria: Mc, MIC refers to lethal concentrations
# [1] = system: croton oil-induced ear swelling; test: Croton oil-induced ear swelling; format: in vivo, CD-1 female mice; design: Average ear thickness: unit not given beside the values; conditions: for Average ear thickness: single oral dose 10 mg/kg 60 min before
# Procedure: The effects of NK, PRED and the vehicle (5% PEG in water) were tested orally in CD-1 female mice. Under the test protocol, 20 μl of 1.0% croton oil in acetone was applied topically to both ears of three groups of mice, each group consisting of 6 mice. No attempt was made to remove the croton oil solution since the solvent evaporated within 30 seconds. The oral doses of NK and PRED were 10 mg/kg (10 ml/kg) bodyweight for both compounds and were administered 60 min before the croton oil applications. Vehicle-treated mice were dosed 10 ml/kg of water, containing 5% polyethylene glycol (PEG), which was also the solvent for the test articles. Ear thickness was measured with an electronic caliper and mean ear thickness (N=12; right+left ears) were calculated and compared with the thickness of ears from vehicle-treated mice (Student's t-test).
# PAF-induced eosinophilia = test: PAF-induced pulmonary eosinophil accumulation after continuous subcutaneous dosing; format: in vivo, Sprague-Dawley rats; conditions: sc 1.0 mg/kg/day for six days, PAF-treated rats
# Procedure: Male Sprague-Dawley rats, 400-600 g, were used in these studies.
# The study described here used subcutaneous administration of norketotifen and ketotifen by Alzet® osmotic pumps. The rats were administered either RS-norketotifen hydrogen fumarate (1.0 mg/kg/day) or RS-ketotifen hydrogen fumarate (1.0 mg/kg/day) or saline. After five days of sc infusions of test articles and the vehicle, the animals were injected, i.p. with 10 μg PAF (platelet aggregating factor) in 0.25% bovine serum albumin (BSA) in saline. The subcutaneous infusions of test articles or vehicle were continued for another twenty-four hours and the animals were then sacrificed by intraperitoneal injections of a barbiturate. The tracheae of the euthanized animals were exposed and cannulated and aliquots (6×10 ml) of a Tyrode solution were successively introduced into the lungs and aspirated by gentle compression of the thorax. The total recovery of lung fluid was usually above 80%. The cell suspensions were concentrated by low speed centrifugation (200 g for 10 min) and the resulting cell pellet was resuspended in 1 ml of a Tyrode solution. Total cell counts were performed after dilution in Turks fluid, fixation in methanol and Leishman staining.
# The study shown here used norketotifen, ketotifen, and saline (control) after continuous dosing with Alzet® Osmotic pumps.
# Aspergillus fumigatus = test: Antimicrobial activity (MIC), Aspergillus fumigatus; format: cell-based; conditions: Fungi: Af, MIC refers to lethal concentrations
# Klebsiella pnemoniae = test: Antimicrobial activity (MIC), Klebsiella pnemoniae; format: cell-based; conditions: Bacteria: Kp, MIC refers to lethal concentrations
# sedation [2] = conditions: orally administered, dogs; U.S. Pat. No. 8,557,846; cited from earlier work
# sedation [3] = conditions: art-accepted mouse model of sedation; U.S. Pat. Nos. 7,226,934 and 7,557,128; cited from earlier work
# TNF-α = test: PHA-induced release of TNF-α from human buffy coats; format: cell-based; conditions: PHA 5 μg/ml, 16 hours, inhibition
# Procedure: as §1, §2
# Streptococcus pneumoniae = test: Antimicrobial activity (MIC), Streptococcus pneumoniae; format: cell-based; conditions: Bacteria: Sp, MIC refers to lethal concentrations
# [4] = system: oxazolone-induced increase in ear thickness; test: Oxazolone test of immunosuppression (ear thickness); format: in vivo, BALB/c mice; conditions: for Increase in ear thickness (mm): control 0.153; for Increase in ear thickness (%): control 100.0
# Procedure: Male BALB/c mice, 20-24 grams, 7-12 weeks, were used. The sensitization dosing (Day 1) consisted of painting the ventral portion of the pre-shaved abdominal skin with 0.1 ml of 3.0% oxazolone in 70% ethanol. Test articles were administered orally in 1.0% methyl-cellulose, starting on Day 1 and continuing for 10 consecutive days. The challenge dosing consisted of the application of 0.05 ml of 3.0% oxazolone in 70% ethanol on both sides of the outer pinna of the right ear. The thickness of both ears of all animals was measured with a calliper before the challenge dose and 24 hours after the administration of the challenge dose (Day 10). The ear thickness of untreated mice was 0.19 to 0.20 mm.
# Justification of the model: The classic oxazolone test method was used with minor modifications. This method has been used for over 40 years in numerous drug development projects.
# [5] = system: Methicillin-resistant S. aureus; test: Antimicrobial activity (MIC), MRSA; format: cell-based; conditions: Staphylococcus aureus; Bacteria: MRSA; MIC refers to lethal concentrations
# IFN-γ = test: PHA-induced release of IFN-γ from human buffy coats; format: cell-based; conditions: PHA 5 μg/ml, 16 hours, inhibition
# Procedure: as §1, §2
# IL-1β = test: PHA-induced release of IL-1β from human buffy coats; format: cell-based; conditions: PHA 5 μg/ml, 16 hours, inhibition
# Procedure: as §1, §2
# [6] = 10.0 mg/kg/day oral for 10 days
# [7] = 30.0 mg/kg/day oral for 10 days
structure (smiles),measurement,setting,value
O=C1Cc2ccccc2C(=C2CCNCC2)c2ccsc21 (racemic) [norketotifen],Effect on PHA-induced release of IL-4 (%),IL-4; 1 uM,0.00%
same,Effect on PHA-induced release of IL-4 (%),IL-4; 10 uM,14.32%
same,Effect on PHA-induced release of IL-4 (%),IL-4; 100 uM,98.27^1%
same,Effect on PHA-induced release of IL-6 (%),IL-6; 1 uM,0.00%
same,Effect on PHA-induced release of IL-6 (%),IL-6; 10 uM,33.13^1%
same,Effect on PHA-induced release of IL-6 (%),IL-6; 100 uM,88.16^1%
same,Effect on PHA-induced release of IL-2 (%),IL-2; 1 uM,0.00%
same,Effect on PHA-induced release of IL-2 (%),IL-2; 10 uM,46.63^1%
same,Effect on PHA-induced release of IL-2 (%),IL-2; 100 uM,93.47^1%
same,MIC,Moraxella catarrhalis,250 µg/mL
same,MIC,"Moraxella catarrhalis; Moraxella catarrhalis, read-out: MIC",250 µg/mL
same,Average ear thickness,"[1]; 0 (predose) min after croton oil, vehicle 0.21 ± 0.02",0.21 ± 0.02
same,Average ear thickness,"[1]; 90 min after croton oil, vehicle 0.29 ± 0.04",0.24 ± 0.02
same,Average ear thickness,"[1]; 120 min after croton oil, vehicle 0.28 ± 0.02",0.25 ± 0.02
same,Anti-inflammatory effect compared with vehicle control group (conclusion in words),"[1]; single oral dose 10 mg/kg, croton oil ear swelling in mice",statistically significant anti-inflammatory effects
same,Reduction of eosinophil counts below the baseline (saline control) level,PAF-induced eosinophilia,26%
same,MIC,Aspergillus fumigatus,4000 µg/mL
same,MIC,Klebsiella pnemoniae,500 µg/mL
same,Sedative side effects,sedation [2],free from sedative side effects
same,Sedative effects,sedation [3],significant sedative effects
same,Effect on PHA-induced release of TNF-α (%),TNF-α; 1 uM,45.57^2%
same,Effect on PHA-induced release of TNF-α (%),TNF-α; 10 uM,63.07^1%
same,Effect on PHA-induced release of TNF-α (%),TNF-α; 100 uM,95.68^1%
same,MIC,Streptococcus pneumoniae,500 µg/mL
same,MIC,"Streptococcus pneumoniae; Streptococcus pneumoniae, read-out: MIC",500 µg/mL
same,Immunosuppression (%),[4]; [6],3.9%
same,Increase in ear thickness (mm),[4]; [6],0.147 mm
same,Increase in ear thickness (%),[4]; [6],96.1%
same,Immunosuppression (%),[4]; [7],8.5%
same,Increase in ear thickness (mm),[4]; [7],0.140 mm
same,Increase in ear thickness (%),[4]; [7],91.5%
same,Immuno-suppressant activity (conclusion in words),"[4]; daily oral dosing for 10 days to mice, RS-norketotifen 10 or 30 mg/kg, prednisolone at 10 times lower doses",did not induce immuno-suppressant activity
same,MIC,[5],2000 µg/mL
same,Effect on PHA-induced release of IFN-γ (%),IFN-γ; 1 uM,0.00%
same,Effect on PHA-induced release of IFN-γ (%),IFN-γ; 10 uM,16.54^2%
same,Effect on PHA-induced release of IFN-γ (%),IFN-γ; 100 uM,71.56^1%
same,Effect on PHA-induced release of IL-1β (%),IL-1β; 1 uM,0.00%
same,Effect on PHA-induced release of IL-1β (%),IL-1β; 10 uM,16.20%
same,Effect on PHA-induced release of IL-1β (%),IL-1β; 100 uM,57.00^1%
